Experimental data taken from ChEMBL document CHEMBL1201862, “PubChem BioAssay data set” (2004).
The source made the active and inactive calls. Unless noted, the calls are words filed in the database; no cut-off is given here.

Legend:
[1] = A cell-based HTS for delayed death inhibitors of the malarial parasite plastid Measured in Microorganism System Using Plate Reader - 2126-02_Inhibitor_Dose_DryPowder_Activity.; assay type: functional, organism-based
[2] = A cell-based HTS for delayed death inhibitors of the malarial parasite plastid Measured in Microorganism System Using Plate Reader - 2126-01_Inhibitor_Dose_DryPowder_Activity.; assay type: functional, organism-based
[3] = FACS-based assay to assess parasite growth inhibition 48 hr Measured in Cell-Based System Using Flow Cytometry - 2126-03_Inhibitor_Dose_DryPowder_Activity. [Related pubchem assays (depositor defined):AID488774]; assay type: functional; conditions: Homo sapiens
Erythrocyte = assay: FACS-based assay to assess parasite growth inhibition 96 hr Measured in Cell-Based System Using Flow Cytometry - 2126-05_Inhibitor_Dose_DryPowder_Activity. [Related pubchem assays (depositor defined):AID488774]; assay type: functional; conditions: Homo sapiens
HEK293 [4] = assay: HEK cell cytotoxicity by LDH release, dose response, cytotoxicity control for IDE activator project, fluorescence, HEK cells (AID 588440); assay type: functional, cell-based; conditions: Homo sapiens;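 further: cytotoxicity by LDH release measuring loss of membrane integrity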
Large T antigen = Large T antigen (Simian virus 40, UniProt P03070); assay type: functional, Betapolyomavirus macacae;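 further: Confirmatory-stage PubChem screen for compounds that inhibit SV40 T antigen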
Sequence of Large T antigen (P03070 whole entry): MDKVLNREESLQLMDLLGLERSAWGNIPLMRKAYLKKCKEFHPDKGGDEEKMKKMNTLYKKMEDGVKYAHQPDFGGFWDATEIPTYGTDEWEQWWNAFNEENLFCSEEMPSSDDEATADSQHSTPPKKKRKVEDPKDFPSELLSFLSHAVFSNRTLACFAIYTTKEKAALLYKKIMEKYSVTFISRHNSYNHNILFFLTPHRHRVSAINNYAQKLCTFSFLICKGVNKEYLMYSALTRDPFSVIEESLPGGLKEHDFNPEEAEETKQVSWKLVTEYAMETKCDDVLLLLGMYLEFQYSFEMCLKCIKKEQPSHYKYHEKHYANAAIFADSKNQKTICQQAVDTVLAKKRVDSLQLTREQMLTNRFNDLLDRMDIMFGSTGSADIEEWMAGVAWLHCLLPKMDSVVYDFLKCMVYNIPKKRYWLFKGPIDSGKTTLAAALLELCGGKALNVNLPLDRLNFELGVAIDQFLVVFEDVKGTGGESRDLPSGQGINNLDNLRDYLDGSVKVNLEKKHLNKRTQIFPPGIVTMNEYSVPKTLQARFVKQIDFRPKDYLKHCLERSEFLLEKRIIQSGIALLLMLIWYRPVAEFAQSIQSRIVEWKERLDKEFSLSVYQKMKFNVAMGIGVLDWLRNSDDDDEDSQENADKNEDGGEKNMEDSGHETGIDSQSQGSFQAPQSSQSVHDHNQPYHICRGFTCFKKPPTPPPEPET

[5] = tested on: Streptococcus sp. 'group A'; assay: growth inhibition of control SK(-) GAS strain, dose response, counter-screen for streptokinase expression inhibitor project, luminescence, kanamycin, BacTiterGlo, confirmation (AID 1900); assay type: functional, organism-based
Insulin-degrading enzyme [6] = biological target: T1, Insulin-degrading enzyme (Homo sapiens, UniProt P14735); assay: activators of endogenous IDE in HEK cells, dose response, cell-based, fluorescence polarization (AID 588439); assay type: functional
T1 sequence (P14735 whole entry): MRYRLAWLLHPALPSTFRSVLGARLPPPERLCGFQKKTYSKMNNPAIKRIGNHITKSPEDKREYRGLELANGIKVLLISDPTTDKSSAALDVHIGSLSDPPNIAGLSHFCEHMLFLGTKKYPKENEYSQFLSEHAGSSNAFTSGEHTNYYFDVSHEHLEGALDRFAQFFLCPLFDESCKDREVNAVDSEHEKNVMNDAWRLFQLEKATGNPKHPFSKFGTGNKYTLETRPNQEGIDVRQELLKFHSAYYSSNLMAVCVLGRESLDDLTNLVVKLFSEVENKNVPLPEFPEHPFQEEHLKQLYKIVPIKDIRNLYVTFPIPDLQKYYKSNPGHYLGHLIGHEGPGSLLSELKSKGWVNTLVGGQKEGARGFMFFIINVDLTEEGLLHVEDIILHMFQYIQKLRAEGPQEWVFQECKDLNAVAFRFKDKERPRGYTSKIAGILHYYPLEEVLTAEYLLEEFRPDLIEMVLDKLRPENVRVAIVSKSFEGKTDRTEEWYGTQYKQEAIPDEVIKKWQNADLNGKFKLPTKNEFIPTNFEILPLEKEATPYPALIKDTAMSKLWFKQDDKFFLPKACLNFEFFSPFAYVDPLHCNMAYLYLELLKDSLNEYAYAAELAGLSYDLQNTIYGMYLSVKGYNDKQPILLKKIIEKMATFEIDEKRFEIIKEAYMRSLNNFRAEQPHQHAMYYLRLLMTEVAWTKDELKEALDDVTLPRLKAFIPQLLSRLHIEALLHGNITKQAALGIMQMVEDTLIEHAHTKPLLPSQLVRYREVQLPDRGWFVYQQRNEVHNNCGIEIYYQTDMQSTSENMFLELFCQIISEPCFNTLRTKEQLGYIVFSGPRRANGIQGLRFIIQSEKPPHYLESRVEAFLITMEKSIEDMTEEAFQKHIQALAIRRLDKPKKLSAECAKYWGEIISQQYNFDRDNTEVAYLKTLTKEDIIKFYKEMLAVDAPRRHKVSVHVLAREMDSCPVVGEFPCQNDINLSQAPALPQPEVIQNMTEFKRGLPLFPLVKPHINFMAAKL

CHO = assay: cytotoxicity in TLR9-MyD88 CHO cells, dose response, cytotoxicity control for TLR9-MyD88 binding inhibitor project, cell-based, luminescence (AID 588339); assay type: functional, hamster; conditions: Cricetulus griseus;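 further: CHO cells stably coexpressing TLR9 and MyD88 fusions from primary screen; compound exposure lasted 48 hours before viability readout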
HEK293 [7] = assay: optical interference in Abeta FP readout, dose response, artefact control for IDE activator project, biochemical, fluorescence polarization (AID 588442); assay type: functional, cell-based; conditions: Homo sapiens
Streptococcus = assay: Group A Streptococcus viability loss, dose response, counter-screen for streptokinase expression inhibitor project, luminescence, BacTiterGlo (AID 1915); assay type: functional, organism-based;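 further: potency for reduction of bacterial viability or growth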
Prothrombin = Prothrombin (Bos taurus, UniProt P00735); assay: thrombin inhibition, dose response, biochemical, fluorescence polarization, uHTS hits (AID 602369); assay type: functional
[8] = biological target: 26S proteasome non-ATPase regulatory subunit 14 (Homo sapiens, UniProt O00487); assay: inhibition of proteasome subunit RPN11 – biochemical, fluorescence polarization, uHTS hits, confirmation (AID 602368); assay type: functional
Sequence of 26S proteasome non-ATPase regulatory subunit 14 (O00487 whole entry): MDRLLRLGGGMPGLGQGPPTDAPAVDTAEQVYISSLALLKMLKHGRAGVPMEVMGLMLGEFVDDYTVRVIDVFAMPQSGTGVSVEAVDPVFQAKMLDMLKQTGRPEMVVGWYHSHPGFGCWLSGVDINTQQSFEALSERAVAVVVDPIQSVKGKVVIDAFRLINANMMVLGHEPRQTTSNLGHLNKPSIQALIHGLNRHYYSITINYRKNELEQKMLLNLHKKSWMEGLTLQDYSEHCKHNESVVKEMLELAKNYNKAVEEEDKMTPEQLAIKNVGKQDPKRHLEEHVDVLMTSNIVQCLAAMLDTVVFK

[9] = biological target: 72 kDa type IV collagenase (Homo sapiens, UniProt P08253); assay: Dose Response validation of uHTS RPN11 inhibitor hits using a MMP-2 Fluorescence assay.; assay type: functional
Sequence of 72 kDa type IV collagenase (P08253 whole entry): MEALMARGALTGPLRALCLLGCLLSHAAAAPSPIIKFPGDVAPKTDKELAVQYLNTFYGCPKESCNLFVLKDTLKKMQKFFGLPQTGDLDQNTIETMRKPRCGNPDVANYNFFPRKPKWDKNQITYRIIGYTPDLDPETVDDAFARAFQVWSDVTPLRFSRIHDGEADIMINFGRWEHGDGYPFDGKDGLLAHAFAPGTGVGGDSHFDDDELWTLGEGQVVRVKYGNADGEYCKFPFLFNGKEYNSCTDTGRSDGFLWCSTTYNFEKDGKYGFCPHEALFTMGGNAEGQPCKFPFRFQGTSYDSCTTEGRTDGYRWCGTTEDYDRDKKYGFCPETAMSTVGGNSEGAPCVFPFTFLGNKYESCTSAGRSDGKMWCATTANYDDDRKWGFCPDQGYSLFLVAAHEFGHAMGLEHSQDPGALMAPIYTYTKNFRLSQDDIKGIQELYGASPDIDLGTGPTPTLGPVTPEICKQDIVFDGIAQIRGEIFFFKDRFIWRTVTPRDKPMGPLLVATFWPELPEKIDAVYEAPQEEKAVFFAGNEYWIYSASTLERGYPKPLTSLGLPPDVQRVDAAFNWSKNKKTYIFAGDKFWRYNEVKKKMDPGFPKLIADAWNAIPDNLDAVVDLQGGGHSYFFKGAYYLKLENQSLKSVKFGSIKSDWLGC

Insulin-degrading enzyme [10] = biological target: T1, Insulin-degrading enzyme; assay: activators of recombinant IDE enzyme, dose response, counter-screen for IDE activator project, biochemical, fluorescence polarization (AID 588681)
Streptokinase A = biological target: T2, Streptokinase A (Streptococcus pyogenes serotype M1, UniProt P10520); assay: S. pyogenes streptokinase expression inhibitors, potency, dose response, plasminogen activation absorbance, OD405 (AID 1914); assay type: functional, Streptococcus pyogenes M1 GAS;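 further: secreted streptokinase activity via plasminogen activation per viability signal from cell pellet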
T2 sequence (P10520 whole entry): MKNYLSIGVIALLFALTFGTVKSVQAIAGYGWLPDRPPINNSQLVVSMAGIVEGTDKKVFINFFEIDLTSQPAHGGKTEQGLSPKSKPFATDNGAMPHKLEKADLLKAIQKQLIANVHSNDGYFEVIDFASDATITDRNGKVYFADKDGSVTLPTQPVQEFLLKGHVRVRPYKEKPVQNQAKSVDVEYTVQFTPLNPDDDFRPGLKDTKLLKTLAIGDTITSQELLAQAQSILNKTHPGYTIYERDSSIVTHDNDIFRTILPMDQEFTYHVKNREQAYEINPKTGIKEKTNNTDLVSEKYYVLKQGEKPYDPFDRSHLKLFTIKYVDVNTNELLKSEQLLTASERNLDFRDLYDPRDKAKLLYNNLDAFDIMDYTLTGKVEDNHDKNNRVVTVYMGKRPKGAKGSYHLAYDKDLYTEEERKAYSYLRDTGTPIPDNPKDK

[11] = biological target: Melanin-concentrating hormone receptor 1 (Homo sapiens, UniProt Q99705); assay: Late-stage fluorescence-based counterscreen for antagonists of the G-protein coupled receptor 7 (GPR7): cell-based dose response assay to identify antagonists of the melanin-concentrating hormone receptor 1 (MCHR1) Set 5.; assay type: functional
Sequence of Melanin-concentrating hormone receptor 1 (Q99705 whole entry): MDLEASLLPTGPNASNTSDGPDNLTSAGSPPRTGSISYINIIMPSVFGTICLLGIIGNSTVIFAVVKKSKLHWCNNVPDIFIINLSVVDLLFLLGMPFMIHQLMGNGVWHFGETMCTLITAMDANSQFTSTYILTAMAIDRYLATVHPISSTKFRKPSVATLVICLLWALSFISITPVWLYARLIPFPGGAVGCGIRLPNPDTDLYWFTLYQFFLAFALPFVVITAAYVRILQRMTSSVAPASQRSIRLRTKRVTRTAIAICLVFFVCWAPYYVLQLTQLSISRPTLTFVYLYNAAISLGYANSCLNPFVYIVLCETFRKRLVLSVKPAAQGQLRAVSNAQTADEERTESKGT

COCCOC(=O)N(C)C[C@@H]1OCCCC[C@H](C)Oc2ccc(NC(=O)Nc3ccccc3)cc2C(=O)N([C@@H](C)CO)C[C@H]1C
AC50 [1]: > 5 µM (inactive)
AC50 [2]: > 5 µM (inactive)
AC50 [3]: 10.9 µM (active)
AC50 (Erythrocyte): 13.4 µM (active)

C#CCOCCOCCOCCNc1nc(N2CCN(C(=O)CCCCCCCCCCNC(=O)[C@H](CCCCN)n3cc(C[C@@H](C)CC)nn3)CC2)nc(N2CCN(C(=O)CCCCCCCCCCNC(=O)[C@H](CCCCN)n3cc(C[C@@H](C)CC)nn3)CC2)n1
IC50 (HEK293 [4]): 4.19 µM (active)
IC50 (Large T antigen): 36.5 µM (active)
EC50 [5]: 2.86 µM (active)
EC50 (Insulin-degrading enzyme [6]): > 2.03 µM (active)
IC50 (CHO): 5.63 µM (active)
EC50 (HEK293 [7]): > 54.7 µM (inactive)
EC50 (Streptococcus): > 150 µM (not active)
IC50 (Prothrombin): 24.5 µM (active)
IC50 [8]: 16.2 µM (active)
IC50 [9]: > 100 µM (inactive)
EC50 (Insulin-degrading enzyme [10]): 9.71 µM (active)
EC50 (Streptokinase A): 13.9 µM (active)

CCc1cccc(Oc2c(Cl)cnn(Cc3cccc4ccccc34)c2=O)c1
IC50 [11]: > 20 µM (inactive)
